Reference: the CheMixHub viscosity set

Test: xn = mol fraction of the nth substance listed

CCCCC + CCCO
298.15 K, 101.33 kPa
Settings | viscosity [mPa·s]
x2 = 0.0291 | 0.242
x2 = 0.0777 | 0.256
x2 = 0.1952 | 0.29
x2 = 0.3332 | 0.357
x2 = 0.403 | 0.41
x2 = 0.4771 | 0.484
x2 = 0.6076 | 0.666
x2 = 0.7373 | 0.949
x2 = 0.8545 | 1.333
x2 = 0.9586 | 1.778

CCCCCCCO + CCCO
viscosity [mPa·s], 101 kPa
Settings | 298.15 K | 308.15 K | 318.15 K
x2 = 0.05 | 5.555 | 4.09 | 3.044
x2 = 0.1 | 5.333 | 3.923 | 2.935
x2 = 0.15 | 5.11 | 3.762 | 2.83
x2 = 0.2 | 4.888 | 3.607 | 2.728
x2 = 0.25 | 4.667 | 3.456 | 2.627
x2 = 0.3 | 4.449 | 3.309 | 2.528
x2 = 0.35 | 4.235 | 3.166 | 2.429
x2 = 0.4 | 4.026 | 3.027 | 2.331
x2 = 0.45 | 3.822 | 2.89 | 2.234
x2 = 0.5 | 3.623 | 2.756 | 2.136
x2 = 0.55 | 3.431 | 2.624 | 2.039
x2 = 0.6 | 3.243 | 2.494 | 1.942
x2 = 0.65 | 3.061 | 2.364 | 1.845
x2 = 0.7 | 2.882 | 2.236 | 1.748
x2 = 0.75 | 2.707 | 2.107 | 1.654
x2 = 0.8 | 2.534 | 1.979 | 1.56
x2 = 0.85 | 2.362 | 1.849 | 1.47
x2 = 0.9 | 2.189 | 1.719 | 1.382
x2 = 0.95 | 2.013 | 1.587 | 1.299

CCN(CC)S(C)(=O)=O + CCCO
303.15 K, 101.33 kPa
Settings | viscosity [mPa·s]
x1 = 0.0661 | 16100
x1 = 0.1423 | 15830
x1 = 0.2148 | 16120
x1 = 0.3057 | 16930
x1 = 0.3821 | 17930
x1 = 0.4421 | 18840
x1 = 0.5219 | 20390
x1 = 0.5944 | 22040
x1 = 0.685 | 24610
x1 = 0.7587 | 27160
x1 = 0.8085 | 29250
x1 = 0.8907 | 33340

CS(C)=O + CCCO
Settings | viscosity [mPa·s]
298.15 K, 101.3 kPa, x1 = 0.0789 | 1.75
298.15 K, 101.3 kPa, x1 = 0.1613 | 1.651
298.15 K, 101.3 kPa, x1 = 0.339 | 1.535
298.15 K, 101.3 kPa, x1 = 0.434 | 1.541
298.15 K, 101.3 kPa, x1 = 0.5363 | 1.562
298.15 K, 101.3 kPa, x1 = 0.6421 | 1.641
298.15 K, 101.3 kPa, x1 = 0.755 | 1.736
298.15 K, 101.3 kPa, x1 = 0.8737 | 1.845
298.15 K, 101.31 kPa, x1 = 0.1053 | 1.666
298.15 K, 101.31 kPa, x1 = 0.2078 | 1.55
298.15 K, 101.31 kPa, x1 = 0.413 | 1.496
298.15 K, 101.31 kPa, x1 = 0.5099 | 1.527
298.15 K, 101.31 kPa, x1 = 0.7025 | 1.664
298.15 K, 101.31 kPa, x1 = 0.7984 | 1.746
298.15 K, 101.31 kPa, x1 = 0.9011 | 1.871
303.15 K, 101 kPa, x1 = 0.5 | 1.425
303.15 K, 101.3 kPa, x1 = 0.0789 | 1.63
303.15 K, 101.3 kPa, x1 = 0.1613 | 1.54
303.15 K, 101.3 kPa, x1 = 0.2478 | 1.452
303.15 K, 101.3 kPa, x1 = 0.5363 | 1.436
303.15 K, 101.3 kPa, x1 = 0.6421 | 1.495
303.15 K, 101.3 kPa, x1 = 0.755 | 1.57
303.15 K, 101.3 kPa, x1 = 0.8737 | 1.676
308.15 K, 101.31 kPa, x1 = 0.2973 | 1.249
308.15 K, 101.31 kPa, x1 = 0.5099 | 1.29
308.15 K, 101.31 kPa, x1 = 0.5989 | 1.329
308.15 K, 101.31 kPa, x1 = 0.7984 | 1.465
308.15 K, 101.31 kPa, x1 = 0.9011 | 1.56
313.15 K, 101 kPa, x1 = 0.7998 | 1.335
318.15 K, 101.31 kPa, x1 = 0.1053 | 1.116
318.15 K, 101.31 kPa, x1 = 0.2078 | 1.064
318.15 K, 101.31 kPa, x1 = 0.2973 | 1.048
318.15 K, 101.31 kPa, x1 = 0.413 | 1.064
318.15 K, 101.31 kPa, x1 = 0.5099 | 1.093
318.15 K, 101.31 kPa, x1 = 0.5989 | 1.129
318.15 K, 101.31 kPa, x1 = 0.7025 | 1.189
318.15 K, 101.31 kPa, x1 = 0.7984 | 1.239
318.15 K, 101.31 kPa, x1 = 0.9011 | 1.314

O=C(O)C=Cc1ccccc1 + CCCO
viscosity [mPa·s]
Settings | 308.15 K | 313.15 K | 318.15 K | 323.15 K
101 kPa, x1 = 0.0687 | 2.066 | – | – | –
101 kPa, x1 = 0.0901 | 2.224 | – | – | –
101 kPa, x1 = 0.109 | 2.44 | – | – | –
101.33 kPa, x1 = 0.0687 | 2.066 | 1.836 | 1.629 | 1.452
101.33 kPa, x1 = 0.109 | 2.44 | 2.158 | 1.888 | 1.683

CC(=O)O.NCCO + CCO
viscosity [mPa·s], 101 kPa
Settings | x1 = 0.0193 | x2 = 0.7231 | x2 = 0.7996 | x2 = 0.8604 | x2 = 0.9136 | x2 = 0.9373 | x2 = 0.9595
293.15 K | 1.608 | 20.45 | 9.894 | 5.502 | 3.168 | 2.55 | 1.998
298.15 K | 1.458 | 16.96 | 8.454 | 4.8 | 2.85 | 2.28 | 1.806
303.15 K | 1.32 | 14.22 | 7.26 | 4.212 | 2.55 | 2.07 | 1.65

CC(C)CC(C)O (stereo unspecified) + CCO
298.15 K, 101.33 kPa
Settings | viscosity [mPa·s]
x2 = 0.1103 | 3.682
x2 = 0.2012 | 3.495
x2 = 0.3207 | 3.131
x2 = 0.4152 | 2.817
x2 = 0.5152 | 2.487
x2 = 0.6098 | 2.16
x2 = 0.7078 | 1.883
x2 = 0.8008 | 1.6
x2 = 0.8981 | 1.342

CCCCC + CCO
298.15 K, 101.33 kPa
Settings | viscosity [mPa·s]
x2 = 0.0673 | 0.245
x2 = 0.1351 | 0.255
x2 = 0.2366 | 0.288
x2 = 0.3031 | 0.302
x2 = 0.4034 | 0.347
x2 = 0.5262 | 0.425
x2 = 0.6339 | 0.521
x2 = 0.7315 | 0.634
x2 = 0.8097 | 0.742
x2 = 0.9174 | 0.927

CCCCCCCCn1cc[n+](C)c1.O=[N+]([O-])[O-] + CCO
Settings | viscosity [mPa·s]
293.15 K, 101 kPa, x2 = 0.128 | 464.3

CCCCCCCO + CCO
viscosity [mPa·s], 101 kPa
Settings | 298.15 K | 308.15 K | 318.15 K
x2 = 0.05 | 5.456 | 4.038 | 3.025
x2 = 0.1 | 5.144 | 3.82 | 2.89
x2 = 0.15 | 4.838 | 3.607 | 2.75
x2 = 0.2 | 4.539 | 3.4 | 2.607
x2 = 0.25 | 4.249 | 3.199 | 2.465
x2 = 0.3 | 3.969 | 3.005 | 2.325
x2 = 0.35 | 3.699 | 2.817 | 2.188
x2 = 0.4 | 3.439 | 2.636 | 2.055
x2 = 0.45 | 3.191 | 2.462 | 1.927
x2 = 0.5 | 2.954 | 2.294 | 1.805
x2 = 0.55 | 2.727 | 2.132 | 1.688
x2 = 0.6 | 2.512 | 1.977 | 1.577
x2 = 0.65 | 2.306 | 1.827 | 1.471
x2 = 0.7 | 2.111 | 1.682 | 1.369
x2 = 0.75 | 1.924 | 1.543 | 1.271
x2 = 0.8 | 1.744 | 1.408 | 1.174
x2 = 0.85 | 1.571 | 1.276 | 1.078
x2 = 0.9 | 1.403 | 1.147 | 0.9796
x2 = 0.95 | 1.237 | 1.021 | 0.8769
